Data as given in patent publication US20090023784A1, “USE OF DEFERIPRONE AND METHODS TO TREAT AND/OR PREVENT FRIEDREICH ATAXIA RESULTING FROM INTRACELLULAR MISHANDLING OF IRON” (priority 2006, published 2009).

Columns and labels:
[1] = Serum deferiprone time-concentration profile (HPLC) in the 52-week monkey study; assay type: in vivo, cynomolgus monkeys; settings: 75 mg/kg twice daily
Method: (§1) Groups of 4 male and 4 female monkeys (2 to 3 years old) were dosed by nasogastric intubation at (0.5% w/v aqueous carboxymethylcellulose vehicle) 75 mg/kg deferiprone twice daily (bid), with 6-8 hours between doses, for at least 364 days.
(§2) Clinical signs, body weights and food intake were assessed at frequent intervals. Ophthalmological and cardiovascular examinations were carried out in Weeks 17, 30, 43, 56 and 60. Hematology, coagulation, clinical chemistry and urine parameters were measured at baseline and in Weeks 8, 16, 30, 41, 56 and 60. Blood samples were taken on the first day of dosing, and in Weeks 17 and 56 for assessment of the serum deferiprone time-concentration profile. A full necropsy was performed on each animal, selected organs weighed, and histopathological examination of abnormalities and selected tissues conducted.

[2] = test system: iron accumulation in dentate nuclei; assay: MRI R2* measurement of brain iron in the pilot trial; assay type: in vivo, human; settings: 20-30 mg/kg/day oral, patients before 17.4±1.6, controls 13.7±0.6
From the text: Multiple-gradient echo sequence was used to monitor the iron concentrations in the brain (Waldvogel et al. Increased iron in the dentate nucleus of patients with Friedrich's ataxia. Ann Neurol 1999; 46:123-5), using a 1.5T Signa unit (GE Medical Systems, Milwaukee, Wisc., USA) using phase array head coil. Deep gray structures were localized by using a T2*-weighted echo-planar sequence (TR 3000 ms, TE 60 ms, eight averages, field of view: 24 cm, 256×224 matrix and slice thickness : 5 mm, 24 slices/1.1 min). A voxel englobing the left and right nuclei was positioned on the largest section of dentate nuclei (dimensions 6×3×2 cm^3). Data acquisition allowing iron monitoring was performed by using a single-slice multi-gradient-echo sequence (TR: 400 ms, flip angle: 50° to maximize gray matter signal, acquisition time: 3 minutes).
The determination of R2* was performed by using data of the multi-gradient echo sequence. In each pixel, the signals Si of the ten images obtained at echo times TEi (−i=1.10) were used to calculate the parameter R2* by adjustment of the signal decay according to the equation Si=So.exp (−R2*.TEi). A parametric image of local R2* values was calculated with the same spatial resolution than the native images. The mean value of R2* was calculated in various regions of interest, all determined by the same experimental radiologist. […]

[3] = Pilot trial: adverse events and biological parameters (hemoglobin, plasma iron, ferritin); assay type: in vivo, human
From the text: Ten adolescents (four males, six females aged 14 to 23 yrs) with a diagnosis of Friedreich ataxia, confirmed by detection of a trinucleotide-repeat expansion in the first intron of the frataxin gene, were studied. Patients received deferiprone (Ferriprox™, Apotex Inc., Toronto, Canada) orally, in two doses for 1-5 months. Three patients were included, sequentially, for a minimum period of two months at each dose. Patient enrollment was staggered by two-weeks to enable monitoring of response. In the absence of toxicity, and with evidence of efficacy in any of the first 3 patients, a second group of 3 patients would be included at the same dose for a total duration of 6 months. If there was an absence of both efficacy and toxicity, the second group of three patients would be administered a higher dose. If toxicity developed, the current dose would be suspended and the trial resumed with the next group of patients at a lower dose. The patients were on idebenone (10 mg/kg/day, in three doses) for at least two years prior to inclusion and were kept on the drug at the same dose for the duration of the trial. MRI examinations were done at inclusion and at 1, 2, 4 and 6 months. The protocol was promoted by Assistance Publique-Hopitaux de Paris and approved by the local ethical committee and registered at the National Health Authority (AFSSAPS) and at the International Protocol Registration System (www.clinicaltrials.gov). A written informed consent was obtained from patients and parents.
The International Cooperative Ataxia Rating Score (ICARS) was used to assess the symptoms of ataxia before and after 1-5 months (Cano et al. International cooperative ataxia rating scale (ICARS): Appropriate for studies of Friedreich's ataxia? Mov Disord 2005; 20:1585-91). […] Patients were monitored for neutropenia, agranulocytosis, musculoskeletal pains and zinc deficiency and had weekly blood counts, plasma iron, serum ferritin and transferrin concentration measurements, as well as assessments of renal and liver function.

[4] = test system: intracellular iron pools of macrophages, hepatocytes, and cardiomyocyte cell lines; settings: living cells, fluorescence probes; cited from earlier work
[5] = 52-week twice daily oral (gavage) toxicity study of deferiprone in non-iron-loaded monkeys; assay type: in vivo, cynomolgus monkeys
Method: As part of a larger study on the potential toxicity of iron chelators, we evaluated the toxicity of deferiprone in normal monkeys receiving 150 mg/kg/day (75 mg/kg twice daily) for 1 year.
To determine the toxicity of deferiprone in non-iron-loaded cynomolgus monkeys following twice daily oral (gavage) administration for 52 consecutive weeks, and to evaluate the regression of any toxic effect during a 4-week treatment-free period.
as §1, §2

## Cc1c(O)c(=O)ccn1C [Deferiprone, 3-hydroxy-1,2-dimethylpyridin-4-one]
[1]
  peak concentration relative to thalassemia patients treated with 25 mg/kg three times daily: about three times
[1]; HPLC
  deferiprone detectable in serum for up to: up to 7 h
  deferiprone detectable in serum from (time after dosing): ≥ 0.5 h
[1]; both sexes, cynomolgus monkey, serum, oral, range in individuals
  half-life: 0.35 to 2.39 h
[2]; after one month
  relaxation rate R2* in dentate nuclei: 16.6 ± 1.3 s⁻¹
[2]; after two months
  relaxation rate R2* in dentate nuclei: 15.9 ± 0.6 s⁻¹
[3]; 20 mg/kg/day oral
  signs of toxicity: without signs of toxicity, other than minor adverse effects, such as nausea
[3]; 80 mg/kg/day oral, first patient (P1), terminated at day 17, slowly reversed on drug termination
  adverse events: fatigue, headache, nausea, dizziness, then floppiness, poor head control, abnormal eye movements and fluctuating consciousness
[3]; regardless of the dose (20 and 30 mg/kg/day)
  impact on the levels of hyposideremic anemia and hypoferritinemia: negligible impact
[4]
  access to intracellular iron pools / chelation: readily enter most cells and efficiently reach the major intracellular sites of iron accumulation
[5]; 75 mg/kg twice daily orally for 52 weeks
  adverse effect (conclusion): without significant adverse effect
[5]; 75 mg/kg twice daily, 52 weeks
  Clinical signs: incidental to administration of deferiprone by the IP route
[5]; 75 mg/kg twice daily, oral gavage, 52 weeks
  deferiprone-related effects on body weight, food intake, ophthalmology, cardiac conduction, blood pressure, heart rate, hematology or urine composition: no deferiprone-related effects
[5]; 75 mg/kg twice daily, oral gavage, 52 weeks, histopathology
  microscopic findings: No microscopic findings
[5]; 75 mg/kg twice daily, oral gavage, 52 weeks, necropsy
  macroscopic findings: No macroscopic findings related to deferiprone
